# Earlier results, collected in patent publication US6759200B1, “Thymidine phosphorylase gene sequence variances having utility in determining the treatment of disease” (Nuvelo, Inc., priority 1998, dated 2004).
# Structures can show the parent of a compound that is named as a salt. Where two headings read alike, the source gives them in different places.
# How the values were obtained:
# [1] = up to; depending on the regimen
# [2] = target: T1, dihydropyrimidine dehydrogenase (DPD) (Homo sapiens, UniProt Q12882)
# T1 construct: host or cells: human subjects in vivo (endogenous enzyme)
# T1 sequence (Q12882 4-1025): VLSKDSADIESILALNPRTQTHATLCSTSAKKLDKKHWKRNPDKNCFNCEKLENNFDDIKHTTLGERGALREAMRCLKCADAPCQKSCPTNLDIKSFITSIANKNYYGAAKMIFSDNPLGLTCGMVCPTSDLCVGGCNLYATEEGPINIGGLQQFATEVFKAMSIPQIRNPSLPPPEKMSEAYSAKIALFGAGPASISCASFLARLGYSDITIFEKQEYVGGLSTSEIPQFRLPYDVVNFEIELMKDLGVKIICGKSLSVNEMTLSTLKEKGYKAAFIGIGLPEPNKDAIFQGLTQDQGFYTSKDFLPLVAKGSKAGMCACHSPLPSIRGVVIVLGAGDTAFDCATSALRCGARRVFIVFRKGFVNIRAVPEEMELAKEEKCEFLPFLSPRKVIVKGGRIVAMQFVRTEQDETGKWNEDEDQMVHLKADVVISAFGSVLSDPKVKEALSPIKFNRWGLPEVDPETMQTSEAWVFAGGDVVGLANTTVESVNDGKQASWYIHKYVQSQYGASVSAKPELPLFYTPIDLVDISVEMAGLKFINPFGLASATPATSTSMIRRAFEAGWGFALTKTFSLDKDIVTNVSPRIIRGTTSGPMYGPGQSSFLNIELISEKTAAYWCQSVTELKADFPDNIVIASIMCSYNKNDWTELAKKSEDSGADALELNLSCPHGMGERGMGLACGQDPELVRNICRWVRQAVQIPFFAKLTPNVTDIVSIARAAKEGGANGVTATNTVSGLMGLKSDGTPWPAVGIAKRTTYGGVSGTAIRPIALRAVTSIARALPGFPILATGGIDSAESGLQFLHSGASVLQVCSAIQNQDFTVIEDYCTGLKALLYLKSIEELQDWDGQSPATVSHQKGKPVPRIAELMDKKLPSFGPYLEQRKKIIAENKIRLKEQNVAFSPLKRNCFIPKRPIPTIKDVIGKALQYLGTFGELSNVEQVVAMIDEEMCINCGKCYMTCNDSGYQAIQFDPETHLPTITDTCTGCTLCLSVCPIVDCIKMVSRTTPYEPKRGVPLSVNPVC
# [3] = tested on: advanced colorectal cancer
# Alzheimer's disease = conditions: PDR
# nucleoside transport = nucleoside transport inhibitor paired with 5-FU and FA; Kohne et al. 1995
# [4] = people genetically deficient in DPD, Diasio et al. 1988
# [5] = Alzheimer's patients receiving Cognex
smiles,measurement,setting,value
"O=c1[nH]cc(F)c(=O)[nH]1 [5-FU, 5-fluorouracil]",patients suffering serious gastrointestinal or hematopoietic toxicity,[1],20-30%
same,dose of 5-FU transformed (catabolized) by DPD to the inactive dihydrofluorouracil form,[2]; in vivo,more than 80%
same,injected dose rapidly inactivated by DPD to therapeutically inactive catabolic products,[2]; injected dose,More than 85%
same,partial remissions,"[3]; 5-FU alone, advanced colorectal cancers",10-30%
same,patients with an objective response,[3]; advanced colorectal cancer,20-40%
same,patients with a complete response (complete tumor disappearance),"[3]; advanced colorectal cancer, of the objective responders",1-5%
same,dose excreted unchanged in the urine,normal individuals,10%
same,elimination half life,normal individuals,0.167 to 0.25 h
same,dose excreted unchanged in the urine,[4],90%
same,elimination half life,[4],2.5 h
"Nc1c2c(nc3ccccc13)CCCC2 [Cognex, tacrine hydrochloride]",patients showing no change or minimal worsening of their disease,Alzheimer's disease; Alzheimer's disease patients receiving Cognex,about 45%
same,patients minimally improved,Alzheimer's disease; [5],About 58%
same,patients much improved,Alzheimer's disease; [5],about 2%
O=c1ccn([C@@H]2O[C@H](COP(=O)(O)OP(=O)(O)OP(=O)(O)O)[C@@H](O)[C@H]2O)c(=O)[nH]1 [Uridine triphosphate],release of thromboxane A2,cultured glial cells,concentration-dependent increases
Nc1ccn([C@@H]2O[C@H](COP(=O)(O)OP(=O)(O)OP(=O)(O)O)[C@@H](O)[C@H]2O)c(=O)n1 [cytidine triphosphate],release of thromboxane A2,cultured glial cells,concentration-dependent increases
Cc1cn([C@H]2C[C@H](O)[C@@H](COP(=O)(O)OP(=O)(O)OP(=O)(O)O)O2)c(=O)[nH]c1=O [deoxythymidine triphosphate],release of thromboxane A2,cultured glial cells,concentration-dependent increases
OCCN(CCO)c1nc(N2CCCCC2)c2nc(N(CCO)CCO)nc(N3CCCCC3)c2n1 [dipyridamole],outcome compared to 5-FU/FA alone,nucleoside transport,failed to show a difference in outcome
O=c1ccn([C@@H]2O[C@H](COP(=O)(O)OP(=O)(O)O)[C@@H](O)[C@H]2O)c(=O)[nH]1 [uridine diphosphate],release of thromboxane A2,cultured glial cells,concentration-dependent increases
